In patent US12302903B2, “Oxazepinone derivative, agricultural/horticultural insecticide containing the same, and method for using the same” (priority 2019, dated 2025):

System: Small Brown Planthopper (Laodelphax Striatellus)
Experiment: Test of insecticidal efficacy against Small Brown Planthopper (rice seedling dip)
Type: in vivo
Settings: 192 h, read-out: corrected insect mortality judgement against small brown planthopper
Procedure: Test Example 2. Test of Insecticidal Efficacy Against Small Brown Planthopper (Laodelphax Striatellus)
The compound or salt thereof expressed by General Formula (1) according to the present invention was dispersed in water and the dispersion was diluted to 50 ppm in the form of a reagent, after which rice plants raised from seeds (variety: Nipponbare) were soaked in the reagent for 30 seconds and dried under wind, and then placed in glass test tubes, each of which was inoculated with 10 third-instar larvae of small brown planthoppers and sealed with cotton, and eight days after the inoculation, the number of live insects and that of dead insects were examined and the corrected insect mortality was calculated based on the formula below, and judgement was made according to the criteria below.
[formula] [formula] Criteria A—Corrected insect mortality: 100% B—Corrected insect mortality: 99% to 90% C—Corrected insect mortality: 89% to 80% D—Corrected insect mortality: 79% to 50%

Compound	mortality at 50 ppm
COCN1C(=O)c2nn(-c3cccnc3)cc2Oc2ncccc21 [Compound No. 1-1, 9-(methoxymethyl)-2-(pyridin-3-yl)-2H-pyrazolo[3,4-f]pyrido[2,3-b][1,4]oxazepine-10(9H)-one]	100%

System: zebrafish embryo
Experiment: Teratogenicity test using zebrafish embryo
Type: in vivo
Settings: zebrafish embryos exposed from 6 hours after fertilization, cultured at 28° C. for five days, 0.1% dimethyl sulfoxide
Procedure: Test Example 4. Teratogenicity Test Using Zebrafish Embryo
Fertilized eggs obtained by mating zebrafish were cultured in a medium (0.3× Danieau's solution) at 28° C. until 6 hours after fertilization. Thereafter, the embryo was transferred to a medium into which the compound expressed by General Formula (1) according to the present invention dissolved in dimethyl sulfoxide was added, and cultured at 28° C. for five days. The concentration of dimethyl sulfoxide in the medium was 0.1%. 12 embryos were tested in each test concentration of the present invention.
Observation sites: notochord, tail, somite, eye, otolith, jaw, heart, blood vessel, abdomen, fin, etc.
From the results of these observations, the presence or absence of teratogenicity risk of the compound expressed by General Formula (1) according to the present invention and six compounds (Compound Nos. 4-10, 1-67, 1-1, 8-125, and 8-22, and a compound encompassed by the claims of Patent Literature 1 (Comparative Compound 4)) disclosed in the aforementioned Patent Literature 1 as the comparative compounds was determined.
It is noted that the teratogenicity test using zebrafish embryo is known to have good high predictivity to the teratogenicity test using the mammals (Reference Literature: Reproductive Toxicology 2012, (33), 155-164).

Compound	Teratogenicity risk
CN1C(=O)c2nn(-c3cccnc3)cc2Oc2ncc(C(F)(F)F)cc21 [Comparative Compound 1]	Yes
COCN1C(=O)c2nn(-c3cccnc3)cc2Oc2ccccc21 [Comparative Compound 2]	Yes
O=C1Nc2ccccc2Oc2cn(-c3cccnc3)nc21 [Comparative Compound 3]	Yes
COCN1C(=O)c2nn(-c3cccnc3)cc2Oc2cc(OC(F)(F)F)ccc21 [Comparative Compound 4]	Yes
CN1C(=O)c2nn(-c3cccnc3)cc2Oc2cc(OC(F)(F)F)ccc21 [Comparative Compound 5]	Yes
COCN1C(=O)c2nn(-c3cccnc3)cc2Oc2c(F)cccc21 [Comparative Compound 6]	Yes
COCN1C(=O)c2nn(-c3cccnc3)cc2Oc2ncccc21 [Compound No. 1-1, 9-(methoxymethyl)-2-(pyridin-3-yl)-2H-pyrazolo[3,4-f]pyrido[2,3-b][1,4]oxazepine-10(9H)-one]	No
